This is an account of results in article PMC6271476, “Synthesis, Anticancer Activity and UPLC Analysis of the Stability of Some New Benzimidazole-4,7-dione Derivatives” (Molecules, 2013).

The subject of data set [1] is human lung adenocarcinoma A549 cells. Description: WST-1 cell viability assay, growth inhibition of A549 cells under normoxia and hypoxia. Conditions: for Differential cytotoxicity O/H (hypoxic/aerobic cytotoxicity coefficient): ratio IC50 normoxia / IC50 hypoxia, A549; for inhibition of the cell growth / decrease of cell viability compared to control cells: compound at 10 µM, 48 h.
Procedure: (§1) The human lung adenocarcinoma A549 cell line, purchased from Health Protection Agency Culture Collections (ECACC, Salisbury, UK), was cultured in F12K medium (HyClone, Loughborough, UK) supplemented with 10% heat-inactivated foetal bovine serum (FBS), penicillin (10 U/mL) and streptomycin (10 µg/mL) in air with 5% CO2 at 37 °C. Hypoxic cells were obtained by culturing in a hypoxic incubator in 1% O2 and 5% CO2 at 37 °C for 24 h before treatment.
(§2) In order to determine the anticancer activity of the analysed compounds we evaluated the cell viability using THE WST-1 assay (Millipore, Billerica, MA, USA) according to the manufacturer’s instructions.
(§3) The absorbance was determined at 420 nm using a microplate reader (Synergy H1, Bio-Tek, Winooski, VT, USA) after 3 h of incubation at 37 °C.
(§4) In order to determine the anticancer activity of the analysed compounds we evaluated the cell viability using the WST-1 assay, which is based on the conversion of the tetrazolium salt WST-1 to formazan by cellular mitochondrial dehydrogenases. Therefore, the amount of formazan dye formed directly correlates with the number of live cells in the culture.
(§5) A549 cells were seeded in 96-well plates at a density of 5,000 cells/well and cultured under normoxic conditions. To investigate the effect of compounds on hypoxic cancer cells, A549 cells were exposed to hypoxia (1% O2) for 24 h before treatment. […] Normoxic and hypoxic cells were treated with different concentrations of the tested compounds or vehicle (0.2% DMSO) for control cells. The cell viability was assessed after a 48 h incubation under normoxic or hypoxic conditions with the compounds. Briefly, WST-1 reagent was added to the cells and the percentage (%) of cell viability related to control cells was calculated by the expression [A] test/[A] control × 100 where [A] test is the absorbance of the cells treated with compounds and [A] control is the absorbance of control cells.

For data set [2] the test system is unchanged.
Procedure: as §1, §2, §3, §4, §5
Data set [3] is described as follows: Stability (degradation kinetics, recovery) in different solvent environments by RP-UPLC. In kind it is physicochemical. Conditions: for half-life at 0.1 mg/mL: read-out: degradation t1/2 (converted).
Experiment in data set [4]: as above
The class given is physicochemical. The following applies: for half-life at 0.1 mg/mL: read-out: degradation t1/2 (converted). The procedure:
Chromatographic purification was performed on silica gel plates (Merck F254, Darmstadt, Germany) with the indicated eluents. Chemicals and solvents were obtained from commercial sources. The UPLC system consisted of an Acquity Ultra Performance LC Waters H-class system (Waters, Corporation, Milford, MA, USA). Chromatographic separation was achieved on an Acquity UPLC HSS T3 column (1.8 µm × 2.1 × 50 mm). The chromatographic peaks were identified with the Waters PDA eλ Acquity UPLC Detector. Compound 5b was monitored at a wavelength of 261 nm and compound 6b at 289 nm. All chromatographic experiments were performed in an isocratic mode. The mobile phase consisted of a mixture of solvents of chromatographic purity, acetonitrile/buffer (30:70 v/v). Buffer was a 0.01 M mixture of ammonium formate and formic acid pH = 2.4. The flow rate was set to 0.5 mL/min and the oven temperature to 25 °C. Compound samples were weighed on analytical scales with an accuracy of 0.01 mg. All the samples were prepared in 5, 10 and 25 mL volumetric flasks. Solution volume injections of 1.5 µL were performed with the use of an autosampler. Each sample was analysed three times and the run time analysis was five minutes. All solutions were filtered through a 0.45 µm membrane filter. The final result was presented as an arithmetical mean. The control of the UPLC system and detection was achieved by the Empower 3 Waters® software. Solvents for UPLC analysis were of UPLC grade and obtained from J. T. Baker (Center Valley, PA, USA). The method was validated in terms of precision, accuracy, specificity, detectability, and stability for compounds 5b and 6b.
Stability: Each medium (1 mL, 0.2% DMSO, water, 0.9% NaCl, and HCl pH = 1.5) was added to 10 mL volumetric flasks containing products 5b and 6b (1 mg). The flasks were filled up with the mobile phase. Each solution was analysed at t0 and after 6, 24, 48, and 72 h. The obtained calibration curve was used for the determination of degradation kinetics of the compounds in the solvents. The degradation kinetic parameters: rate constant (k) and t1/2 (half-life) were calculated with the use of Equation (3), where c0 is the concentration at time zero, c is the remaining concentration, k is the rate constant (h^−1) and t is the time (h): […]
The source holds these as a separate data set.

[5] abbreviates: Homo sapiens, A549, 48 h, read-out: IC50 A549 Normoxia (O), A549 cells, normoxia, 48 h incubation, WST-1, mean ± SD, n = 3.
Where [6] appears, read: Homo sapiens, A549, read-out: IC50 A549 Hypoxia (H), A549 cells, hypoxia (1% O2, 24 h before treatment and during culture), 48 h incubation, WST-1, mean ± SD, n = 3.
The mark [7] stands for this setting: read-out: IC50 A549 Hypoxia (H), A549 cells, hypoxia (1% O2, 24 h before treatment and during culture), 48 h incubation, WST-1, mean ± SD, n = 3.
Setting [8] is: read-out: IC50 A549 Normoxia (O), A549 cells, normoxia, 48 h incubation, WST-1, mean ± SD, n = 3.

Where two headings read alike, the source gives them in different places.

With `O=C1C=CC(=O)c2[nH]c(-c3ccc4c(c3)OCO4)nc21` [Compound 5c, 2-Benzo[1,3]dioxol-1H-benzimidazol-4,7-dione], the 50% inhibitory concentration (IC50) in data set [1] (setting [5]) turned out to be 80.9 ± 1.9 µM; in data set [1] (setting [6]), 51.2 ± 1.5 µM. The “Differential cytotoxicity O/H (hypoxic/aerobic cytotoxicity coefficient)” value in data set [1] stood at 1.58.
For “2-(4-Chlorophenyl)-1H-benzimidazol-4,7-dione N-oxide [Compound 6a]”, in data set [1] (normoxia), the “inhibition of the cell growth / decrease of cell viability compared to control cells” value came to 20%. In addition, the IC50 in data set [1] (setting [7]) came out at 35 ± 1.6 µM; in data set [1] (setting [8]), 116 ± 1.9 µM. In addition, the “Differential cytotoxicity O/H (hypoxic/aerobic cytotoxicity coefficient)” value in data set [2] turned out to be 3.28.
Consider `O=C1C=CC(=O)c2[nH]c(-c3ccc(Cl)cc3)nc21` [Compound 5a, 2-(4-Chlorophenyl)-1H-benzimidazol-4,7-dione], for which the IC50 in data set [1] (setting [5]) amounted to 30.2 ± 1.2 µM; in data set [1] (setting [6]), 36.1 ± 1.2 µM. Moreover, in data set [1] (normoxia), the “inhibition of the cell growth / decrease of cell viability compared to control cells” value is reported as “approximately 33%”. Moreover, the “Differential cytotoxicity O/H (hypoxic/aerobic cytotoxicity coefficient)” value in data set [1] is recorded as 0.83.
For the compound `Nc1n[n+]([O-])c2ccccc2[n+]1[O-]` [Tirapazamine, reference compound], the IC50 was found to be 166 µM in data set [1] (setting [5]), 30 ± 1.5 µM in data set [1] (setting [6]) and 166.2 ± 1.6 µM in data set [1] (setting [8]).
Consider `O=C1C=CC(=O)c2c1[nH]c(-c1ccccc1[N+](=O)[O-])[n+]2[O-]` [Compound 6b, 2-(2-Nitrophenyl)-1H-benzimidazol-4,7-dione N-oxide], for which the IC50 in data set [1] (setting [6]) was determined as 116 ± 0.8 µM. The “Differential cytotoxicity O/H (hypoxic/aerobic cytotoxicity coefficient)” value in data set [1] was 4.31. Also, the “degradation rate constant k” value in data set [3] (MeOH) amounted to 0.0002 h⁻¹; in data set [4] (0.2% DMSO), 0.00009 h⁻¹; in data set [4] (0.9% NaCl), 0.0004 h⁻¹; in data set [4] (H2O) it was 0.0004 h⁻¹. Besides, the half-life at 0.1 mg/mL in data set [3] (MeOH) is 161 h; in data set [4] (0.2% DMSO), 413 h; in data set [4] (0.9% NaCl), 142 h; in data set [4] (water, H2O) it was 146 h.
For the compound `O=C1C=CC(=O)c2[nH]c(-c3ccccc3[N+](=O)[O-])nc21` [Compound 5b, 2-(2-Nitrophenyl)-1H-benzimidazol-4,7-dione], the IC50 in data set [1] (setting [5]) was less than 100 µM; in data set [1] (setting [6]), 47.4 ± 1.1 µM; in data set [1] (setting [8]), 100 ± 1.8 µM. Moreover, the “Differential cytotoxicity O/H (hypoxic/aerobic cytotoxicity coefficient)” value in data set [1] turned out to be 2.13. The half-life at 0.1 mg/mL in data set [3] (MeOH) was more than 72 h; in data set [4] (0.2% DMSO) it was 215 h; in data set [4] (0.9% NaCl), 155 h; in data set [4] (water, H2O), more than 72 h. Moreover, the degradation entry was “did not suffer any degradation” in data set [3] (methanol, up to 72 h) and “did not suffer any degradation” in data set [4] (water, up to 72 h). Further, the “degradation rate constant k” value in data set [4] (0.2% DMSO) is 0.0002 h⁻¹; in data set [4] (0.9% NaCl), 0.0004 h⁻¹.
For the compound `O=C1C=CC(=O)c2c1[nH]c(-c1ccc3ccccc3c1)[n+]2[O-]` [Compound 6d, 2-Naphthyl-1H-benzimidazol-4,7-dione N-oxide], in data set [1], the “Differential cytotoxicity O/H (hypoxic/aerobic cytotoxicity coefficient)” value is on record as 2.62. Also, in data set [1] (setting [7]), the 50% inhibitory concentration (IC50) turned out to be 96.8 ± 1.9 µM.
The like results for `O=C1C=CC(=O)c2[nH]c(-c3ccc4ccccc4c3)nc21` [Compound 5d, 2-Naphthyl-1H-benzimidazol-4,7-dione] were, in that order, 2.06 and 232.4 ± 1.4 µM.
With `O=C1C=CC(=O)c2c1[nH]c(-c1ccc3c(c1)OCO3)[n+]2[O-]` [Compound 6c, 2-Benzo[1,3]dioxol-1H-benzimidazol-4,7-dione N-oxide], the IC50 in data set [1] (setting [5]) worked out at 79.5 ± 1.9 µM; in data set [1] (setting [6]), 44 ± 2.5 µM. Further, the “Differential cytotoxicity O/H (hypoxic/aerobic cytotoxicity coefficient)” value in data set [1] is 1.80.
